According to US20080249186A1, “Fungicidal Composition” (GIVAUDAN SA, priority 2005, published 2008):

Assays:
Fusarium oxysporum = assay: Checkerboard titration / MIC determination in microtiter plates (turbidity, fungal growth); type: cell-based; conditions: agent alone; percent by weight
Experimental: (§1) A test system was set up with two of most common soil inhabitating plant pathogenic fungi causing high losses in green houses: Fusarium oxysporum, and Rhizoctonia solani. Garlic oil was used as the source of allyl sulphides.
(§2) The synergistic action between this oil and eugenol or thymol was tested in Checkerboard titration experiments. The ‘checkerboard’ is the inhibitory pattern found for multiple combinations of two antimicrobial agents in concentrations equal to, above, and below their minimal inhibitory concentration for the organism being tested. These multiple combinations of antimicrobial agents are prepared in microtiter plates. The checkerboard consists then of columns which contain the same amount of one antimicrobial which is diluted along the x-axis and rows which each contain the same amount of the other antimicrobial (diluted along the y-axis). Thus, each well of the microtiter plate is a unique combination of the two agents.
(§3) A method of quantitating synergy is the ‘fractional inhibitory concentration’ (FIC) index. For each row, the FIC index is calculated from the lowest concentration of agents necessary to inhibit growth. The FIC of each agent is derived by dividing the concentration of the agent present in that well of the microtiter plate by the minimal inhibitory concentration (MIC) needed of that agent alone to inhibit the organism. The FIC index is then the sum of these values for both antibacterial agents in that well of the microtiter plate. Fractional inhibitory concentration indices are then used as measure of synergy. The FIC index is calculated for each row as follows:
(§4) where MICa, MICb are the minimal inhibitory concentration (MIC) of compound A and B in the mixture, and MICA, MICB are the MIC of A and B when used alone. When the lowest FIC index obtained in a microtiter plate in this way is less than 1, the combination is synergistic. When the FIC index is 1, the combination is additive.
(§5) All examples were made using routine techniques for MIC determination. The dilutions of the active agents were prepared in dimethylsulfoxide, and 2 μl aliquots of the different stock solutions of each of the two agents were then added to individual wells of the microtiter plates to obtain the desired checkerboard as described above. Fungi were swabbed from agar plates and suspended in 10 ml of Sabouraud liquid medium. The fungal suspensions was diluted 20 fold in the same growth medium. To each well of the microtiter plates 100 μl of such a diluted suspension of the test organism was distributed. The plates were covered with plastic films and incubated for 48 h at 30° C. with shaking at 250 rpm. The turbidity was then measured with a microplate reader to determine fungal growth. […]

Rhizoctonia solani = assay: as above; type: cell-based; conditions: agent alone; percent by weight
Experimental: as §1, §2, §3, §4, §5

SMILES	MIC of pure compounds, F. oxysporum (Fusarium oxysporum)	MIC of pure compounds, R. solani (Rhizoctonia solani)
C=CCc1ccc(O)c(OC)c1 [eugenol, 4-hydroxy-3-methoxy-1-allylbenzene]	0.05%	0.025%
Cc1ccc(C(C)C)c(O)c1 [thymol, 1-methyl-3-hydroxy-4-iso-propylbenzene]	0.05%	0.0125%
